≈ marks a conversion by molar mass, not a printed value. Entries after “also recorded” stand apart in the source; their conditions may differ. Read-outs that look alike come from different tables or passages of the source.
Key:
Mucor miehei = test: Plate agar diffusion test, minimal inhibitory concentration against Mucor miehei; type: cell-based; conditions: Rhizomucor miehei
Procedure: Die antibakterielle Wirkung kommt sowohl gegen gram-positive wie gram-negative Bakterien zur Geltung, wie z.B. im Platten-Agardiffusionstest in vitro [10 µl/Testrondelle (6 mm ø)] gezeigt werden kann, wo sie bei verschiedenen pathogenen Keimen eine minimale Hemmkonzentration im Bereiche von 1-200 µg/ml zeigen. Von den gegenüber den neuen Verbindungen empfindlichen gram-positiven Bakterien seien z.B. die folgenden genannt: Bacillus cereus, Bacillus subtilis, Clostridium pasteurianum, Corynebacterium rathayi, von den gram-negativen folgende: Agrobacterium tumefaciens, Erwinia amylovorum, Escherichia coli K 12 wild type, Klebsiella aerogenes, Serratia marcescens 13880, Serratia marcescens 30122.
Die antifungische Wirkung tritt praktisch gegenüber den meisten Pilzen auf. So weist das Antibiotikum Tü 1718 und insbesondere die Verbindungen der Formel (IV) im oben genannten Agardiffusionstest eine minimale Hemmkonzentration im Bereiche von ca. 0,1-200 µg/ml gegenüber sehr vielen pathogenen und nicht pathogenen Pilzen, z.B. gegen Pythium debarianum, Mucor hiemalis+, Mucor hiemalis-, Mucor miehei, Trichophyton mentagrophytes, Botrytis cinerea 157, Aspergillus fumigatus, und mehrere andere. So besitzen z.B. die nachstehend aufgeführten spezifischen Verbindungen die folgenden minimalen Hemmkonzentrationen gegenüber Mucor miehei: • Komponente A1 von Antibiotikum Tü 1718, d.h. (2S,5S)-2-(2-Hydroxyäthyl)-clavam = 10 ug/ml
(§1) Bei der […] kann der Plattendiffusionstest dienen, wobei vorzugsweise folgende Testkeime verwendet werden: Clostridium pasteurianum, Escherichia coli und Mucor miehei. Die minimale Hemmkonzentration der Hauptkomponente des Antibiotikums in µg/m1 gegenüber den eben genannten Mikroorganismen ist wie folgt: • Clostridium pasteurianum 50

Clostridium pasteurianum = test: Plate diffusion test, minimal inhibitory concentration against Clostridium pasteurianum; type: cell-based; conditions: Plattendiffusionstest, read-out: minimale Hemmkonzentration
Source text: as §1

[1] = tested on: Tumorzellen der Zellinie NS-1; test: Tumour-inhibiting effect on tumour cells of cell line NS-1; type: cell-based, Maus; conditions: Zellinie NS-1, compared with Actinomycin C
Source text: Das neue Antibiotikum, seine Extrakte und die neuen Verbindungen der Formel (IV) besitzen zudem auch eine tumorhemmende Wirkung, wie in Versuchen an Tumorzellen der Zellinie NS-1, einer Variante der Zelline P 3, die aus Mineralöl-induzierten Plastocytomen der Maus stammen, gezeigt werden kann.

[2] = Solubility in solvents and water; type: physicochemical
Source text: (§2) Als Aufbewahrungsmittel eignet sich Chloroform. […] Es ist somit möglich, die Verbindungen in Form all jener pharmazeutischen Präparate zu verwenden, die Wasser enthalten, wie insbesondere von wässrigen Lösungen bei der parenteralen oder oralen Applikation, oder Cremen oder Salben oder Tinkturen bei der topischen Gabe.
(§3) Als Aufbewahrungsmittel eignet sich Chloroform. […] Bei der Dünnschichtchromatographie z.B. an Kieselgel-Alufolien kann die Substanz z.B. durch folgende Sprühreagenzien sichtbar gemacht werden: Ehrlich's Reagenz, rot; Vanillin/ ^H2S04, lindgrün; Ninhydrin, gelb mit violettem Rand.

[3] = Stability solvent-free and in aqueous solution; type: physicochemical
Source text: as §2, §3

[4] = Agardiffusionstest, read-out: minimale Hemmkonzentration gegenüber Mucor miehei

Compound	MIC (Mucor miehei; [4]) [µg/mL]	MIC (Mucor miehei; Plattendiffusionstest, Mucor miehei, read-out: minimale Hemmkonzentration) [µg/mL]	MIC (Clostridium pasteurianum) [µg/mL]	tumorhemmende Wirkung [1]	Löslichkeit in Chloroform, Aceton, Methanol ([2]; Chloroform, Aceton, Methanol)	Löslichkeit in Wasser ([2]; Wasser)	Stabilität in lösungsmittelfreiem Zustand ([3]; lösungsmittelfrei)	Stabilität in wässerigen Lösungen ([3]; wässerige Lösungen, pH 5-7)
O=C1C[C@@H]2O[C@@H](CCO)CN12 [Komponente A1 von Antibiotikum Tü 1718, (2S,5S)-2-(2-Hydroxyäthyl)-clavam]	10 (≈ 63.6 µM)	10 to 20 (≈ 63.6 to 127 µM)	50 (≈ 318 µM)	ca. die Hälfte der tumorhemmenden Wirkung von Actinomycin C	sehr gut; also recorded: gut löslich	weniger gut löslich; also recorded: mässig löslich	beschränkt stabil	einigermassen gute Stabilität
O=C(COc1ccccc1)OCC[C@H]1CN2C(=O)C[C@@H]2O1 [(2S,5S)-2-(2-Phenoxyacetoxyäthyl)-clavam]	0.1 (≈ 0.343 µM)	–	–	–	–	–	–	–

Reference: patent EP0057664A2, “Clavam derivatives” (CIBA-GEIGY AG, priority 1981, dated 1982)
